{"source": "patent US20230323294A1", "about": "“DIFFERENTIATION OF CORTICAL NEURONS FROM HUMAN PLURIPOTENT STEM CELLS” (priority 2016, published 2023)", "type_in_all_cases": "cell-based, human", "key": {"sodium channel": {"test_system": "sodium channel"}, "hPSCs [1]": {"test_system": "hPSCs", "test": "Proliferation (pH3) and cell death (cleaved Caspase 3) after P/S/D treatment", "settings": "for cell proliferation (phospho-Histone 3): as early as 24 hrs after P/S treatment (day 3)", "description": "(a) Percentage of mitotic cells expressing phospho-histone 3 (pH3) among total cells at one day after P/S/D treatment (day 3 of differentiation). (b) Percentage of apoptotic cells expressing cleaved caspase 3 (CC3) among total cells at one day after P/S/D treatment (day 3 of differentiation). The conditions highlighted in the dashed line boxes in a,b are the P1 dosage groups aligned by ascending order of S concentration. For a,b, N=4 randomly selected photo frames from each of the 2 independent batches of cell cultures. Statistical analysis was carried out using the Dunnett's multiple comparison test to compare each dosage with LSB+X at day 3 of differentiation. […] (c) Summary of grouped results in a following the order of increasing concentration of P, or increasing concentration of S (d). (e) Summary of grouped results in b following the order of increasing concentration of P, or increasing concentration of S (f). […] Black dots represent values from quantification of individual photos frames. […]\nIncreased total neuron yields were obtained when lower PD concentrations were combined with SU exposure in an effort to balance neuronal induction efficiency and overall cell toxicity. […] To understand whether reduced yield is due to rapid cell cycle exit or direct toxicity, we measured phospho-Histone 3 (pH3) and cleaved Caspase 3 (CC3) as markers of cell proliferation and death, respectively. […]\nEdU was added to the cultures at 5 μM for a window of 48 hrs each starting at various time points of differentiation (day 8, 13, 18, 23, 28, 33), and the cells were fixed at day 40 with 4% paraformaldehyde for 20 mins. EdU was detected with the Click-iT EdU Imaging Kit (Invitrogen) according to the specifications of the manufacturer. Quantification of EdU positive and cortical layer marker positive neurons in the EdU labeling experiments, and the quantification of marker positive neurons and total cells in the long-term culture was carried out using ImageJ with ITCN plugin for nuclei quantification, combined with manual counting. […] All quantification results were plotted in Prism (version 6.0, GraphPad)."}, "hPSCs [2]": {"test_system": "hPSCs", "test": "Total cell / neuron yield in culture (FIG. 1G)", "description": "FIGS. 1A-1I depict illustrations, images and graphs showing the rapid induction of cortical neurons from human pluripotent stem cells using a combinatorial small molecule-based protocol. FIG. 1A is a schematic illustration of the pathway manipulations to generate neural crest versus forebrain fates and neural precursor versus accelerated neuronal fates. Protocols for the derivation of SOX10+ neural crest precursor, PAX6+ CNS precursors and BRN3A/ISL1+sensory neurons have been reported while the current invention is focused on a strategy for the rapid induction of cortical neurons. […] FIG. 1C depicts graphs of the time-course quantitative analyses of CNS (PAX6::H2B-GFP, left), NC (SOX10::GFP, middle) and placode (SIX1::H2B-GFP, right) induction under the various protocols. […] FIG. 1F is a graph showing the quantification of the TUJ1 data from FIGS. 1D and 1E at day 13 of differentiation by intracellular flow. […] FIG. 1G depicts graphs of the P and S single and combinatorial dose response analyses based on quantification of the percentages of NESTIN+ and TUJ1+ cells by intracellular flow cytometry (upper), and an estimate of the total neurons in culture per cm^2 (for every hPSC plated at day 0 under P1S5D and P8S10D conditions, ˜0.7 and 0.2 neurons were obtained respectively at day 13). […]"}, "hPSCs [3]": {"test_system": "hPSCs", "test": "Neuronal induction efficiency, intracellular flow cytometry for TUJ1", "settings": "day 13"}, "AMPA receptors": {"test_system": "AMPA receptors", "test": "Spontaneous excitatory postsynaptic currents (sEPSCs) recording", "settings": "P1S5D+none conditions at day 40"}, "hPSC-derived neurons": {"test_system": "hPSC-derived neurons", "test": "Survival of cultures maintained in P/S/D in the final differentiation step", "settings": "3 uM"}, "hPSCs [4]": {"test_system": "hPSCs", "test": "qRT-PCR gene expression analysis during differentiation", "settings": "forebrain marker, day 13", "procedure": "Cells were lysed with Trizol Reagent (Life Technology) and stored in -20° C. Total RNA was extracted using phenol/chloroform and isopropanol precipitation, and dissolved in ddH2O. cDNA was made using the QuantiTech Reverse Transcription Kit (Qiagen). Quantitative RT-PCR was performed using the Mastercycler […]×2 (Eppendorf), and GAPDH was used as the housekeeping gene control for normalization. Delta Delta Ct and fold changes were calculated and results were plotted in Prism (version 6.0, GraphPad)."}, "[5]": {"settings": "additional treatment on top of PD and SU"}}, "data": [{"smiles": "NC1=N[C@H](O)[C@H]2[C@H]3O[C@]4(O)O[C@@H]([C@@H](O)[C@@]2(N1)[C@@H]4O)[C@]3(O)CO", "note": "[Tetrodotoxin]", "values": [{"measurement": "voltage-dependent sodium channel responses", "setting": "sodium channel", "value": "blocked"}]}, {"smiles": "Cc1c[nH]c(/C=C2\\C(=O)Nc3ccccc32)c1CCC(=O)O", "note": "[SU5402, 2-[(1,2-Dihydro-2-oxo-3H-indol-3-ylidene)methyl]-4-methyl-1H-pyrrole-3-pr-opanoic acid]", "values": [{"measurement": "cell proliferation (phospho-Histone 3)", "setting": "hPSCs [1]", "value": "reduced cell proliferation"}, {"measurement": "cell death (cleaved Caspase 3)", "setting": "hPSCs [1]; one day after P/S/D treatment (day 3)", "value": "observed only at high doses"}]}, {"smiles": "C[C@H](NC(=O)Cc1cc(F)cc(F)c1)C(=O)N[C@H](C(=O)OC(C)(C)C)c1ccccc1", "note": "[DAPT]", "values": [{"measurement": "effect on overall neuron yield", "setting": "hPSCs [2]; [5]", "value": "did not negatively affect overall neuron yield"}, {"measurement": "efficiency of neuronal induction", "setting": "hPSCs [3]; [5]", "value": "further increased"}]}, {"smiles": "NS(=O)(=O)c1cccc2c1c([N+](=O)[O-])cc1nc(O)c(O)nc12", "note": "[NBQX]", "values": [{"measurement": "spontaneous excitatory postsynaptic currents (sEPSCs)", "setting": "AMPA receptors", "value": "inhibited"}]}, {"smiles": "Cc1c[nH]c(-c2cnc(NCCNc3ccc(C#N)cn3)nc2-c2ccc(Cl)cc2Cl)n1", "note": "[CHIR]", "values": [{"measurement": "effect on survival of cultures maintained in P/S/D", "setting": "hPSC-derived neurons", "value": "strong pro-survival effect"}]}, {"smiles": "O=C(NOC[C@H](O)CO)c1ccc(F)c(F)c1Nc1ccc(I)cc1F", "note": "[PD0325901, N-(2,3-dihydroxy-propoxy)-3,4-difluoro-2-(2-fluoro-4-iodo-phenylamino)-benzamide]", "values": [{"measurement": "FOXG1 induction", "setting": "hPSCs [4]", "value": "reduced the efficiency of FOXG1 induction"}, {"measurement": "yield in total cell numbers", "setting": "hPSCs [2]; at high concentrations, suggesting toxicity", "value": "low yield in total cell numbers"}, {"measurement": "TUJ1+%", "setting": "hPSCs [3]; added to LSB+X, at high concentrations", "value": "> 50", "unit": "%"}, {"measurement": "cell proliferation (phospho-Histone 3)", "setting": "hPSCs [1]", "value": "reduced cell proliferation"}]}]}
